Data reported in ChEMBL document CHEMBL3822406, “Synthesis and evaluation of a series of 4-azaindole-containing p21-activated kinase-1 inhibitors” (Bioorg Med Chem Lett, 2016).
In brackets after ≈: the same amount, converted by molar mass.

Assays:
Hepatocyte = test: Drug uptake in mouse hepatocytes measured at 30 secs relative to control; type: ADME, cell-based; conditions: 0.5 min
[1] = molecular target: Serine/threonine-protein kinase PAK 1/PAK 2/PAK 3 (Homo sapiens, UniProt O75914+Q13177+Q13153); test: Inhibition of PAK1/2/3 in human EBC1 cells assessed as MEK1 phosphorylation level at Serine298 residue incubated for 2 hrs by HTRF assay; type: cell-based
[2] = Apparent permeability from apical to basolateral side in MDCK cells; type: ADME, cell-based, Canis lupus familiaris; conditions: dog
[3] = Fraction unbound in mouse plasma; type: ADME, cell-free
[4] = Kinetic solubility at pH 7.4 by high throughput assay; type: physicochemical; conditions: buffer, read-out: Kinetic_solubility
[5] = Volume of distribution at steady state in nude mouse at 2 mg/kg, iv; type: ADME, organism-based; conditions: in vivo, read-out: Vdss
[6] = Plasma clearance in nude mouse at 2 mg/kg, iv; type: ADME, organism-based
Mus musculus = test: Unbound clearance in nude mouse at 2 mg/kg, iv; type: ADME, organism-based; conditions: in vivo
[7] = Half life in nude mouse at 2 mg/kg, iv; type: ADME, organism-based; conditions: in vivo
MDR1 (human) [8] = test: Apparent permeability from apical to basolateral side in MDCK cells expressing human MDR1; type: ADME, cell-based, Canis lupus familiaris; conditions: dog
MDR1 (human) [9] = test: Apparent permeability from basolateral to apical side in MDCK cells expressing human MDR1; type: ADME, cell-based, Canis lupus familiaris; conditions: dog
MDR1 (human) [10] = test: Efflux ratio of apparent permeability from basolateral to apical side over apical to basolateral side in MDCK cells expressing human MDR1; type: ADME, cell-based, Canis lupus familiaris; conditions: dog
[11] = Lipophilicity, logD of compound at pH 7.4; type: physicochemical; conditions: buffer
[12] = molecular target: Serine/threonine-protein kinase PAK 1 (Homo sapiens, UniProt Q13153); test: Inhibition of recombinant human GST-tagged PAK1 kinase domain expressed in baculovirus expression system assessed as suppression of phosphorylation of coumarin/fluorescein-labelled FRET peptide substrate at Ser/Thr19 residues preincubated with substrate for 10 mins followed by enzyme addition measured after 60 mins by Z-Lyte assay
[13] = molecular target: Serine/threonine-protein kinase PAK 4 (Homo sapiens, UniProt O96013); test: Inhibition of human recombinant GST-tagged PAK4 kinase domain (295 to 591 residues) expressed in baculovirus expression system assessed as suppression of phosphorylation of coumarin/fluorescein-labelled FRET peptide substrate at Ser/Thr19 residues preincubated with substrate for 10 mins followed by enzyme addition measured after 60 mins by Z-Lyte assay
[14] = Cmax in nude mouse at 25 mg/kg, po; type: ADME, organism-based; set-up: dose 25 mg/kg, route oral; conditions: in vivo
[15] = Tmax in nude mouse at 25 mg/kg, po; type: ADME, organism-based; conditions: in vivo
[16] = Oral bioavailability in nude mouse at 25 mg/kg; type: ADME, organism-based; conditions: in vivo

Chain of Serine/threonine-protein kinase PAK 1 (Q13153 whole entry, the tested form may be a part): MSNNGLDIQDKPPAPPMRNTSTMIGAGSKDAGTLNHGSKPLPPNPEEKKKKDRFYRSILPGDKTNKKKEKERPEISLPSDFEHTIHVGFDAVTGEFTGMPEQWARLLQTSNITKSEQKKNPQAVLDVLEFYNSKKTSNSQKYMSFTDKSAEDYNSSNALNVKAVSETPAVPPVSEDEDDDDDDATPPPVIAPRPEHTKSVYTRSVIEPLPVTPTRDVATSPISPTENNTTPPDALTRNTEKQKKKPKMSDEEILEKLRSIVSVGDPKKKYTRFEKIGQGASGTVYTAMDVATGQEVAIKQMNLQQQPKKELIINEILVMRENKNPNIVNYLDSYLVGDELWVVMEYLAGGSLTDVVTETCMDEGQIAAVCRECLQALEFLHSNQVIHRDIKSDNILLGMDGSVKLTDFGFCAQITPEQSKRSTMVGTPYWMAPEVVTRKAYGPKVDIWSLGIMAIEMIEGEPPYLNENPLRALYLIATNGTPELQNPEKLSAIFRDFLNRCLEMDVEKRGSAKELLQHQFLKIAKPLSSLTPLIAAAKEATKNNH
Chain of Serine/threonine-protein kinase PAK 4 (O96013 whole entry, the tested form may be a part): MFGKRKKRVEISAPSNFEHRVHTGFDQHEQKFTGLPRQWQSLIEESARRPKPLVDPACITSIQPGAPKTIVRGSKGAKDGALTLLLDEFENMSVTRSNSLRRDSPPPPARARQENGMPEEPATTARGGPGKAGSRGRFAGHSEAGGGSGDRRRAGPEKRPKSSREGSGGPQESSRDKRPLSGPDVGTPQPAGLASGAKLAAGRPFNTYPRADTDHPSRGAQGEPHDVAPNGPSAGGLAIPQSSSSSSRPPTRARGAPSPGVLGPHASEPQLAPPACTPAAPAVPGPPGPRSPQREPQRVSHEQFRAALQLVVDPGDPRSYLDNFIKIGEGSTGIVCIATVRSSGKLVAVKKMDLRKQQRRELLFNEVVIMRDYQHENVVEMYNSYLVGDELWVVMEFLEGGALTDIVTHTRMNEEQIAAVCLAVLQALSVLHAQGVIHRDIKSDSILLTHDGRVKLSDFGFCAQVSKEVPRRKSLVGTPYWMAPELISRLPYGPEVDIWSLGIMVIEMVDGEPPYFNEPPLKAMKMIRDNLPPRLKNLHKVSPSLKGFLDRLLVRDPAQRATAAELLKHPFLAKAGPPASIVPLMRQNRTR

## C[n+]1ccc(-c2ccccc2)cc1
Hepatocyte
  fold change (FC): 4.7

## C[C@H](Nc1nccc(Nc2cc(C3CC3)[nH]n2)n1)c1ccc2[nH]ccc2c1
Hepatocyte
  fold change (FC): 1.8
[1]
  IC50: 120 nM
[2]
  Papp A→B: 2 ×10⁻⁶ cm/s
[3]
  fraction unbound: 0.008
[4]
  solubility kinetic: 69 µM (≈ 24.8 µg/mL)
[5]
  Vd: 4.5 L/kg
[6]
  clearance: 160 mL/min/kg
Mus musculus
  CL free: 20000 mL/min/kg
[7]
  half-life: 19.2 min
MDR1 (human) [8]
  Papp A→B: 0.5 ×10⁻⁶ cm/s
MDR1 (human) [9]
  Papp B→A: 14.6 ×10⁻⁶ cm/s
MDR1 (human) [10]
  efflux ratio: 27.7
[11]
  logD: 3.7

## C[C@H](Nc1nccc(Nc2cc(C3CC(F)(F)C3)[nH]n2)n1)c1ccc2[nH]ccc2n1
[12]
  Ki: 68 nM
[1]
  IC50: 250 nM

## C[C@@H](Nc1nccc(Nc2cc(C3CC3)[nH]n2)n1)c1ccc2[nH]ccc2n1
[12]
  IC50: 685 nM

## C[C@H](Nc1nccc(Nc2cc(C3CC3)[nH]n2)n1)c1nc2cc[nH]c2cc1Cl
[12]
  Ki: 119 nM
[1]
  IC50: 190 nM

## C[C@@H](c1ccc2[nH]ccc2n1)N(C)c1nccc(Nc2cc(C3CC3)[nH]n2)n1
[12]
  Ki: 18 nM
[1]
  IC50: 240 nM

## C[C@H](Nc1nccc(Nc2cc(C3CC3)[nH]n2)n1)c1ccc2[nH]cc(Cl)c2n1
[12]
  Ki: 6 nM
[1]
  IC50: 160 nM

## C[C@H](Nc1nccc(Nc2cc(C3CC3)[nH]n2)n1)c1cc2cc[nH]c2cn1
[1]
  IC50: 68 nM
[2]
  Papp A→B: 0.9 ×10⁻⁶ cm/s
[3]
  fraction unbound: 0.039
[4]
  solubility kinetic: 73 µM (≈ 26.3 µg/mL)

## C[C@H](Nc1nccc(Nc2cc([C@@H]3C[C@H]3F)[nH]n2)n1)c1ccc2[nH]ccc2n1
[2]
  Papp A→B: 4.2 ×10⁻⁶ cm/s
[3]
  fraction unbound: 0.047
[4]
  solubility kinetic: 73 µM (≈ 27.6 µg/mL)

## C[C@H](Nc1nccc(Nc2cc([C@H]3C[C@@H]3F)[nH]n2)n1)c1ccc2[nH]ccc2n1
[2]
  Papp A→B: 3.7 ×10⁻⁶ cm/s
[4]
  solubility kinetic: 104 µM (≈ 39.4 µg/mL)

## c1cc(Nc2cc(C3CC3)[nH]n2)nc(NCc2ccc3[nH]ccc3n2)n1
[12]
  Ki: 120 nM
[13]
  Ki: 505 nM

## C[C@H](Nc1nccc(Nc2cc(C3CC3)[nH]n2)n1)c1nc2cc[nH]c2cc1F
[12]
  Ki: 4 nM
[1]
  IC50: 57 nM
[2]
  Papp A→B: 8.3 ×10⁻⁶ cm/s
[3]
  fraction unbound: 0.014
[4]
  solubility kinetic: 58 µM (≈ 21.9 µg/mL)

## CC[C@H](Nc1nccc(Nc2cc(C3CC3)[nH]n2)n1)c1ccc2[nH]ccc2n1
[12]
  Ki: 23 nM
[1]
  IC50: 180 nM

## C[C@H](Nc1nccc(Nc2cc(C3CC3)[nH]n2)n1)c1ccc2[nH]ccc2n1
Hepatocyte
  fold change (FC): 2.7
[12]
  Ki: 32 nM
[1]
  IC50: 51 nM
[2]
  Papp A→B: 4.3 ×10⁻⁶ cm/s
[3]
  fraction unbound: 0.045
[4]
  solubility kinetic: 133 µM (≈ 47.9 µg/mL)
[14]
  Cmax: 4.7 µM
[15]
  Tmax: 34.8 min
[5]
  Vd: 1.65 L/kg
[6]
  clearance: 48 mL/min/kg
Mus musculus
  CL free: 1067 mL/min/kg
[7]
  half-life: 37.8 min
[16]
  bioavailability: 4.8%
MDR1 (human) [8]
  Papp A→B: 0.2 ×10⁻⁶ cm/s
MDR1 (human) [9]
  Papp B→A: 9.8 ×10⁻⁶ cm/s
MDR1 (human) [10]
  efflux ratio: 59
[11]
  logD: 2.7

## c1cc(Nc2cc(C3CC3)[nH]n2)nc(NCc2ccc3nccn3c2)n1
[12]
  Ki: 360 nM

## O=C(O)C[C@H](O)C[C@H](O)/C=C/c1c(C2CC2)nc2ccccc2c1-c1ccc(F)cc1 [PITAVASTATIN]
Hepatocyte
  fold change (FC): 6.6

## CCCCNC(=O)NS(=O)(=O)c1ccc(C)cc1 [TOLBUTAMIDE]
Hepatocyte
  fold change (FC): 1.4
